What all share (assay type): cell-based
One experiment concerns the target T1, human A2B receptor (Homo sapiens, UniProt P29275).
T1 construct: expressed in transfected cells; host or cells: HEK293
T1 sequence (P29275 1-332): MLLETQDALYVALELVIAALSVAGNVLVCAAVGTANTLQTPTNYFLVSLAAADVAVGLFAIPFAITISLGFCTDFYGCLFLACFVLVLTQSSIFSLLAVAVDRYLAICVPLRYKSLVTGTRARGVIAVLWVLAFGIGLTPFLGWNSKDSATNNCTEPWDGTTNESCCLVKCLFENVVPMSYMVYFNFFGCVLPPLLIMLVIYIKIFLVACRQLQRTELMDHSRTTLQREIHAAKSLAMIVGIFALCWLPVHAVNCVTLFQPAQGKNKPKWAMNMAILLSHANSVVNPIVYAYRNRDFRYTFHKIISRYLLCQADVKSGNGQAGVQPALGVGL
Put plainly: cAMP (HTRF) functional assay, recombinant HEK293 cells expressing human A2B receptor, agonist NECA. The procedure: (§1) The functional activities of human A2A, A2B, A1 and A3 receptors were determined by quantification of cAMP, being the second messenger for adenosine receptors.
(§2) Cells were seeded into 384-well plates, forskolin, test compounds and agonists (CPA for A1- and IB-MECA for A3-receptor) were added. After 30 min incubation, HTRF reagents (cAMP dynamic 2, Cis Bio) were added and the cellular cAMP levels were determined using the ENVISION (Perkin Elmer) plate reader. Obtained raw data were normalized against the inhibitor control and the neural control (DMSO) and the normalized data were fitted using GeneData software.
For orientation: In TR-FRET formats the signal depends on donor and acceptor labels being close together.

The next experiment concerns the target T2, human A2A receptor (Homo sapiens, UniProt P29274).
T2 construct: expressed in transfected cells; host or cells: HEK293
Put plainly: cAMP (HTRF) functional assay, recombinant HEK293 cells expressing human A2A receptor, agonist NECA. As for the experimental part:
as §1, §2

A further experiment has as its target T3, human A1 receptor (Homo sapiens, UniProt P30542).
T3 construct: expressed in transfected cells; host or cells: CHO
T3 sequence (P30542 1-326): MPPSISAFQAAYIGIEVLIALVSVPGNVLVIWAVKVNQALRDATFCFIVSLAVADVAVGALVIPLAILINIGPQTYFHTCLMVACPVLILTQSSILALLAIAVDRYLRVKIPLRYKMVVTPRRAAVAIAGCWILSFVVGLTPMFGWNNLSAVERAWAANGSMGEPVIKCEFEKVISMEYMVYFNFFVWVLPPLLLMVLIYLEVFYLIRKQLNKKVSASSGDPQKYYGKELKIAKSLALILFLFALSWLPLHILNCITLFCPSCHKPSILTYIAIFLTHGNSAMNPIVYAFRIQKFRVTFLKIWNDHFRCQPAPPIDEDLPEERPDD
Put plainly: cAMP (HTRF) functional assay, recombinant CHO cells expressing human A1 receptor, forskolin + agonist CPA. The procedure: as §1
For human A1 and A3 receptors, recombinant CHO cells, expressing either A1 or A3-receptor, were used. As both receptors couple to Gi proteins, the assay protocol was adapted:
as §2

T2 sequence (P29274 whole entry): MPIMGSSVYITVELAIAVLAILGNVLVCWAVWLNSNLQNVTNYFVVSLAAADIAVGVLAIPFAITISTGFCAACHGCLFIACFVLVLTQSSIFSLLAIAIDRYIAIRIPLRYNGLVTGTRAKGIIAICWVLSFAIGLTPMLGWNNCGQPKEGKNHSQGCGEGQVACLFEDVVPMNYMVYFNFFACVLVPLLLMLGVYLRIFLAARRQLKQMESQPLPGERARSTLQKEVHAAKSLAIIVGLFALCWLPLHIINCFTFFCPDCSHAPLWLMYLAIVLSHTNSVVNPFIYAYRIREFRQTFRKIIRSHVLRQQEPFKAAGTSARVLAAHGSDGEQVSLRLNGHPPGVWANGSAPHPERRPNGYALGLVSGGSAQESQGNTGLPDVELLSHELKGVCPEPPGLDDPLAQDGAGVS

Consider `COc1ncc(-c2cnn(C)c2)c2sc(NC(=O)c3ccc(CN(C)C)cc3)nc12` [compound 22, 4-Dimethylaminomethyl-N-[4-methoxy-7-(1-methyl-1H-pyrazol-4-yl)-thiazolo[4,5-c]pyridin-2-yl]-benzamide], for which the IC50 is less than 100 nM at human A2B receptor, less than 10 nM at human A2A receptor and greater than 1000 nM on human A1 receptor.
For the molecule `COc1ncc(C2CCOCC2)c2sc(NC(=O)c3ccc(CN(C)C)cc3)nc12` [compound 27, 4-Dimethylaminomethyl-N-[4-methoxy-7-(tetrahydro-pyran-4-yl)-thiazolo[4,5-c]pyridin-2-yl]-benzamide], the figures for the half-inhibitory concentration (IC50) on human A2B receptor, on human A2A receptor and on human A1 receptor were less than 100 nM, less than 10 nM and greater than 1000 nM, respectively.
In the case of `COc1ncc(N2CCOCC2)c2sc(NC(=O)c3ccc(Cn4ccnc4)cc3)nc12` [compound 33, 4-Imidazol-1-ylmethyl-N-(4-methoxy-7-morpholin-4-yl-thiazolo[4,5-c]pyridin-2-yl)-benzamide], the half-inhibitory concentration (IC50) on human A2B receptor is less than 100 nM; on human A2A receptor it was less than 10 nM; at human A1 receptor it was greater than 1000 nM.
As for `COc1ncc(N2CCOCC2)c2sc(NC(=O)N3CCC4(CCCOC4)C3)nc12` (stereo not shown) [compound 34, 7-Oxa-2-aza-spiro[4.5]decane-2-carboxylic acid (4-methoxy-7-morpholin-4-yl-thiazolo[4,5-c]pyridin-2-yl)-amide], the IC50 at human A2B receptor was less than 100 nM; on human A2A receptor, less than 10 nM.
Regarding `COc1ncc(-c2ccccc2)c2sc(NC(=O)c3ccc(CN4CCCC4=O)cc3)nc12` [compound 62, N-(4-Methoxy-7-phenyl-thiazolo[4,5-c]pyridin-2-yl)-4-(2-oxo-pyrrolidin-1-ylmethyl)-benzamide], the IC50 was less than 100 nM on human A2B receptor, less than 10 nM at human A2A receptor and less than 1000 nM on human A1 receptor.
For `COc1ncc(-c2cnn(C)c2)c2sc(NC(=O)N3CCC4(CCCOC4)C3)nc12` (stereo not shown) [compound 80, 7-Oxa-2-aza-spiro[4.5]decane-2-carboxylic acid [4-methoxy-7-(1-methyl-1H-pyrazol-4-yl)-thiazolo[4,5-c]pyridin-2-yl]-amide], the concentration for half-maximal inhibition (IC50) is less than 100 nM on human A2B receptor, less than 10 nM on human A2A receptor and greater than 1000 nM at human A1 receptor.
For `COc1ncc(-c2cnn(C)c2)c2sc(NC(=O)N3CCC4(CCOCC4)C3)nc12` [compound 81, 8-Oxa-2-aza-spiro[4.5]decane-2-carboxylic acid [4-methoxy-7-(1-methyl-1H-pyrazol-4-yl)-thiazolo[4,5-c]pyridin-2-yl]-amide], the IC50 at human A2B receptor was less than 100 nM; at human A2A receptor, less than 10 nM; at human A1 receptor, greater than 1000 nM.
As to `COc1ncc(C2CCOCC2)c2sc(NC(=O)c3cnc(C)o3)nc12` [compound 147, 2-Methyl-oxazole-5-carboxylic acid [4-methoxy-7-(tetrahydro-pyran-4-yl)-thiazolo[4,5-c]pyridin-2-yl]-amide], the IC50 at human A2B receptor is less than 100 nM; at human A2A receptor, less than 10 nM; at human A1 receptor, greater than 1000 nM.
`COc1ncc(N2CCOCC2)c2sc(NC(=O)N3CC[C@@]4(CCCOC4)C3)nc12` [compound 168, (S)-7-Oxa-2-aza-spiro[4.5]decane-2-carboxylic acid (4-methoxy-7-morpholin-4-yl-thiazolo[4,5-c]pyridin-2-yl)-amide]: the half-maximal inhibitory concentration (IC50) is less than 100 nM at human A2B receptor and less than 10 nM at human A2A receptor.
With `COc1ncc(N2CCOCC2)c2sc(NC(=O)c3ccc(CN4CCCC4=O)cc3)nc12` [compound 170, N-(4-Methoxy-7-morpholin-4-yl-thiazolo[4,5-c]pyridin-2-yl)-4-(2-oxo-pyrrolidin-1-ylmethyl)-benzamide], the 50% inhibitory concentration (IC50) was less than 100 nM at human A2B receptor and less than 10 nM at human A2A receptor.
In the case of `COc1ncc(-c2cnn(C)c2)c2sc(NC(=O)N3CC[C@@]4(CCOC4)C3)nc12` [compound 172, (R)-2-Oxa-7-aza-spiro[4.4]nonane-7-carboxylic acid [4-methoxy-7-(1-methyl-1H-pyrazol-4-yl)-thiazolo[4,5-c]pyridin-2-yl]-amide], the half-inhibitory concentration (IC50) is less than 100 nM at human A2B receptor, less than 10 nM at human A2A receptor and greater than 1000 nM at human A1 receptor.
The matching figures for `COc1ncc(-c2cnn(C)c2)c2sc(NC(=O)N3CC[C@@]4(CCCOC4)C3)nc12` [compound 176, (S)-7-Oxa-2-aza-spiro[4.5]decane-2-carboxylic acid [4-methoxy-7-(1-methyl-1H-pyrazol-4-yl)-thiazolo[4,5-c]pyridin-2-yl]-amide]: less than 100 nM, less than 10 nM and greater than 1000 nM.
With `COc1ncc(-c2cnn(C)c2)c2sc(NC(=O)N3CC[C@]4(CCCOC4)C3)nc12` [compound 177, (R)-7-Oxa-2-aza-spiro[4.5]decane-2-carboxylic acid [4-methoxy-7-(1-methyl-1H-pyrazol-4-yl)-thiazolo[4,5-c]pyridin-2-yl]-amide], the IC50 on human A2B receptor was less than 100 nM; at human A2A receptor it was less than 10 nM; at human A1 receptor it was greater than 1000 nM.
As for `COc1ncc(C2CCOCC2)c2sc(NC(=O)c3ccc(CN4CCCC4=O)cc3)nc12` [compound 180, N-[4-Methoxy-7-(tetrahydro-pyran-4-yl)-thiazolo[4,5-c]pyridin-2-yl]-4-(2-oxo-pyrrolidin-1-ylmethyl)-benzamide], the results for the half-inhibitory concentration (IC50) on human A2B receptor, at human A2A receptor and at human A1 receptor were less than 100 nM, less than 10 nM and less than 1000 nM, respectively.
As to `COc1ncc(C2CCOCC2)c2sc(NC(=O)c3cnc(C)s3)nc12` [compound 181, 2-Methyl-thiazole-5-carboxylic acid [4-methoxy-7-(tetrahydro-pyran-4-yl)-thiazolo[4,5-c]pyridin-2-yl]-amide], the 50% inhibitory concentration (IC50) was less than 100 nM on human A2B receptor, less than 10 nM on human A2A receptor and less than 1000 nM at human A1 receptor.
As for `COc1ncc(-c2ccc(F)cc2)c2sc(NC(=O)N3CCC4(CCOCC4)C3)nc12` [compound 193, 8-Oxa-2-aza-spiro[4.5]decane-2-carboxylic acid [7-(4-fluoro-phenyl)-4-methoxy-thiazolo[4,5-c]pyridin-2-yl]-amide], the IC50 at human A2B receptor was less than 100 nM; on human A2A receptor, less than 10 nM; on human A1 receptor, greater than 1000 nM.
Consider `COc1ncc(-c2ccccc2)c2sc(NC(=O)N3CCC4(CCCC4N)CC3)nc12` (stereo not shown) [compound 201, 1-amino-N-{4-methoxy-7-phenyl-[1,3]thiazolo[4,5-c]pyridin-2-yl}-8-azaspiro[4.5]decane-8-carboxamide], for which the IC50 on human A2B receptor was less than 100 nM; at human A2A receptor, less than 10 nM.
Take `COc1ncc(-c2ccncc2)c2sc(NC(=O)N3CCC4(CCOCC4)C3)nc12` [compound 212, 8-Oxa-2-aza-spiro[4.5]decane-2-carboxylic acid (4-methoxy-7-pyridin-4-yl-thiazolo[4,5-c]pyridin-2-yl)-amide]: the results for the IC50 at human A2B receptor, on human A2A receptor and at human A1 receptor were less than 100 nM, less than 10 nM and greater than 1000 nM, respectively.
`COc1ncc(N2CCOCC2)c2sc(NC(=O)c3ccc(N4C(=O)CCC4=O)cc3)nc12` [compound 214, 4-(2,5-Dioxo-pyrrolidin-1-yl)-N-(4-methoxy-7-morpholin-4-yl-thiazolo[4,5-c]pyridin-2-yl)-benzamide]: the IC50 is less than 100 nM at human A2B receptor, less than 10 nM at human A2A receptor and greater than 1000 nM on human A1 receptor.
The matching figures for `COc1ncc(-c2ccncc2)c2sc(NC(=O)c3ccc(C(=O)N(C)C)cc3)nc12` [compound 219, N-(4-Methoxy-7-pyridin-4-yl-thiazolo[4,5-c]pyridin-2-yl)-N′,N′-dimethyl-terephthalamide]: less than 100 nM, less than 10 nM and greater than 1000 nM.
Consider `COc1nc(F)c(-c2ccccc2)c2sc(NC(=O)N3CCC4(CCOCC4)C3)nc12` [compound 229, 8-Oxa-2-aza-spiro[4.5]decane-2-carboxylic acid (6-fluoro-4-methoxy-7-phenyl-thiazolo[4,5-c]pyridin-2-yl)-amide], for which the 50% inhibitory concentration (IC50) at human A2B receptor and on human A2A receptor was less than 10 nM throughout.
For the molecule `COc1ncc(C2CCOCC2)c2sc(NC(=O)N3CCC4(CCOCC4)C3)nc12` [compound 232, 8-Oxa-2-aza-spiro[4.5]decane-2-carboxylic acid [4-methoxy-7-(tetrahydro-pyran-4-yl)-thiazolo[4,5-c]pyridin-2-yl]-amide], the 50% inhibitory concentration (IC50) was less than 100 nM on human A2B receptor, less than 10 nM at human A2A receptor and greater than 1000 nM at human A1 receptor.
The matching figures for `COc1ncc(C2=CCOCC2)c2sc(NC(=O)N3CCC4(CCOCC4)C3)nc12` [compound 237, 8-Oxa-2-aza-spiro[4.5]decane-2-carboxylic acid [7-(3,6-dihydro-2H-pyran-4-yl)-4-methoxy-thiazolo[4,5-c]pyridin-2-yl]-amide]: less than 10 nM, less than 10 nM and less than 1000 nM.

One may read the IC50 as the concentration at which inhibition is half-maximal.

These data come from US11186592B2, “Thiazolopyridine derivatives as adenosine receptor antagonists” (MERCK PATENT GMBH, priority 2017, dated 2021).
